In patent US20120315308A1, “METHODS AND DEVICES FOR CONTROLLING PARTICLE SIZE AND PARTICLE SIZE DISTRIBUTION” (priority 2010, published 2012):
Several values for one entry are separate records, joined by “and”; a condition that tells them apart may be missing. Identical values can stand only once. Like-named read-outs stand apart in the source and are kept apart here.

Protocol: A submicron dispersion of naproxen was prepared using the enhanced initial dispersion followed by a secondary high shear mixing process. The following equipment was used for the experiment:
(1) An Ivek Digispense 3009 controller with an AP motor/base assembly and a AA pump body.
(2) A Micronoson Ultrasonic Cell Distruptor, XL 100 watt ultrasonic controller and a Misonix 22.5 kHz ultrasonic transducer horn with a coaxillal center feed.
(3) Microfluidizer—Microfluidics M-110EH-25 high shear processor with a 75 micron F-20Y interaction chamber.
(4) Horiba LA-950 Laser Diffraction Particle Size Analyzer.
The Ivek Digispense pump speed was calibrated to 20 mL/min.
The end of the ultrasonic horn, also referred to as an ultrasonic probe, was suspended in air, the power to the Ivek pump and the ultrasonic probe was turned on. Ultrasonic power was set to 20 watts. The height of the ultrasonic probe dispense tubing was adjusted until the feed liquid was dispersed as small droplets, thereby creating a fine spray. The tubing was fixed at this height, as above and below this height, dispensed liquid simply drips from the probe.
The tip of the ultrasonic transducer horn was secured just above the check valve in the feed reservoir. The antisolvent was a 0.5% Triton X-100 in dionized water, and 190 mL of the antisolvent was added to the inlet reservoir of the Microfluidizer. Naproxen has a tendency to agglomerate, therefore, nonionic Triton X-100 surfactant was used as the antisolvent.
DMSO was used as the solvent and it contained 13.75 g naproxen per 100 mL solvent. An ice bath was used to chill the sample to avoid over heating with multiple passes.
The microfluidizer pressure was set to 24,000 psi, using the antisolvent. […] The outlet from the cooling coil of the microfluidizer was placed in the inlet reservoir to allow for recycling of the process. The Ivek Pump was set for 20 mL/min.
With the Microfluidizer running at 24,000 psi in a recirculation mode the Pump and Ulrasonic Probe were simutaneously turned on for 30 seconds and then immediately turned off. A single pass sample was collected for particle size analyzsis. This sample contained 1.375 grams of naproxen in the mixed solution of DMSO & 0.5% triton X-100 DI water. The Microfluidizer continued to run for an additional 150 seconds for a total of 180 seconds. After six passes, a sample was collected to evaulate particle size.
The graph presented in FIG. 3 is a plot of naproxen particle diameter (x axis) vs. frequency of occurrence of the particle diameter (y axis). Table 6 provides the mean and median particle size for each run.

[1] = no ultrasonic step, 1 pass through Microfluidizer at 24,000 psi
[2] = no ultrasonic step, 6 passes through Microfluidizer at 24,000 psi
[3] = with ultrasonic initial mixing, 1 pass through Microfluidizer at 24,000 psi, DMSO / 0.5% Triton X-100 in water
[4] = with ultrasonic initial mixing, 6 passes through Microfluidizer at 24,000 psi, DMSO / 0.5% Triton X-100 in water

Mean Particle Size [1]: 4.65 μm and 8.199 μm
Median particle size [1]: 4.784 μm and 8.324 μm
Mean Particle Size [2]: 2.4845 μm and 2.47 μm
Median particle size [2]: 1.214 μm and 1.696 μm
Mean Particle Size [3]: 1.021 μm and 1.257 μm
Median particle size [3]: 0.3267 μm and 0.6459 μm
Mean Particle Size [4]: 0.6051 μm and 0.606 μm
Median particle size [4]: 0.5067 μm and 0.4602 μm
median naproxen particle size (diameter) (with ultrasonic initial mixing, regardless of how many passes were employed): less than 1 μm
Structure (SMILES): COc1ccc2cc([C@H](C)C(=O)O)ccc2c1 [naproxen]
